Measurements published in article PMC4102551, “Screening and Characterisation of Antimicrobial Properties of Semisynthetic Betulin Derivatives” (PLoS ONE, 2014).
“And” between values parts separate entries of the source, which are not always exact repeats. Equal entries are not always repeated.

Experiments:
[1] = tested on: P. aeruginosa ATCC 27853; experiment: Broth microdilution assay, P. aeruginosa; format: cell-based, Pseudomonas aeruginosa; settings: 50 µM, 24 h, inhibition of growth, mean ± SD
Description: (§1) Clinically used antimicrobial agents were selected based on international guidelines for antimicrobial testing and were utilised as reference compounds in the antimicrobial assays. The compounds were purchased from Sigma, Fluka and ICN Biomedicals. Stock solutions of the reference compounds were prepared either in double distilled sterile MilliQ water or in DMSO. Water solutions were sterilised through a 0.22 µm filter (VWR International). […] During the primary screening, these reference compounds were used as positive controls at the determined MIC on every plate.
(§2) Gram-negative strains Escherichia coli (ATCC 25922), Enterobacter aerogenes (ATCC 13048) and Pseudomonas aeruginosa (ATCC 27853), Gram-positive strains Staphylococcus aureus (ATCC 25923) and Enterococcus faecalis (ATCC 29212), and fungal strain Candida albicans (ATCC 90028) were obtained from Microbiologics Inc., and used for the antimicrobial screening. Strains were selected according to the guidelines set for clinical laboratories by Clinical and Laboratory Standards Institute [CLSI, formerly National Committee on Clinical Laboratory Standards [22]] and the European Committee on Antimicrobial Susceptibility Testing (EUCAST). Bacterial strains were grown on Mueller Hinton II Agar (MHA) (BBL, BD) and Mueller Hinton II broth (MHB) (BBL, BD), whereas Candida was initiated on Sabouraud Dextrose Agar (SDA) (Difco, BD) plates. Media were prepared into MilliQ water according to manufacturer’s instruction and autoclaved at 121°C for 15 min. Bacteria were plated on MHA plates and incubated at 37°C for 16–18 h. Bacterial suspension for the assays was prepared by subculturing the bacteria into MHB and by incubating at 37°C for 16–20 h at 110 rpm prior to the assay. Candida strain was grown on SDA plates at 27°C for 16–18 h and suspended into sterile 0.9% saline for the assay.
(§3) Antimicrobial screening assays were performed by broth microdilution method following the guidelines of CLSI and EUCAST. Bacterial suspensions were prepared as mentioned earlier and diluted with MHB to obtain a final inoculum of 5×10^5 colony-forming units (cfu)/mL in the assay for all the bacteria (based on OD620 values previously calibrated against plate counts). Candida suspension was prepared into sterile 0.9% saline solution as stated earlier. […] Assays were carried out in clear 96-well microtitre plates and initiated by dispensing an equal volume of microbial suspension and sample solution diluted into the assay medium into the wells. The plates were incubated for 24 h at 37°C (for Candida the incubation was at 35°C for 48 h) with agitation. Absorbance was measured at 620 nm with Victor plate reader (Wallac 1420, Perkin Elmer) at 0, 4 and 24 h with the bacteria, and at 0, 24 and 48 h with Candida. The antimicrobial activity of the samples was calculated from the absorbance values by comparing to the controls, and expressed as a percentage inhibition of growth. All the betulin derivatives were first assayed at the single concentration of 50 µM (two separate experiments, each with three replicates). […] The MIC90 value was expressed as the lowest concentration of compound that inhibited the microbial growth by >90%. The MIC90 results are means of three replicates from two separate experiments.

[2] = tested on: E. coli ATCC 25922; experiment: Broth microdilution assay, E. coli; format: cell-based, Escherichia coli; settings: 50 µM, 24 h, inhibition of growth, mean ± SD
Description: as §1, §2, §3

[3] = tested on: Huh-7 cells; experiment: in vitro; format: cell-based, human; settings: 50 µM, 24 h exposure, ATP content, 5% FBS
Description: Huh-7 cells (derived from human hepatocellular carcinoma) were obtained as a gift from Prof. Ralf Bartenschlager (University of Heidelberg, Germany) and used for assessing the cytotoxicity against mammalian cells. HL cells (a heteroploid cell line used for propagating respiratory viruses) were used as a host cell line in the host-pathogen co-culture assay. […] Both cell lines were cultured at 37°C, 5% CO2 and 95% humidity.
The effect of the betulin derivatives on metabolic activity of Huh-7 cells was evaluated by measuring the intracellular ATP content of the cells after 24 h exposure to the compounds. In brief, cells were seeded at 20000 cells/well on white-walled microplates (PerkinElmer) and incubated at 37°C, 5% CO2 and 95% humidity. After culturing the cells overnight, the medium was replaced with the assay media (5% FBS) containing the sample and the cells were incubated for 24 h. Polymyxin B sulphate (15000 IU/mL) was used as a positive control. Following the incubation period, Promega’s CellTiter-Glo Cell Viability Assay was used to determine the intracellular ATP levels according to the manufacturer’s instructions. Cells were washed with 100 µL 6.7 mM PBS, pH 7.4 and 50 µL of fresh assay media and 50 µL of the CellTiter-Glo reagent were added into the wells. After 2 min shaking, followed by 10 min incubation at RT, luminometric signal was measured using Varioskan Flash plate reader (Thermo Fisher Scientific).

[4] = tested on: C. albicans ATCC 90028; experiment: Broth microdilution assay, C. albicans; format: cell-based, Candida albicans; settings: 50 µM, 48 h at 35°C, inhibition of growth, mean ± SD
Description: as §1, §2, §3

[5] = tested on: E. faecalis ATCC 29212; experiment: Broth microdilution assay, E. faecalis; format: cell-based, Enterococcus faecalis; settings: 50 µM, 24 h, inhibition of growth, mean ± SD
Description: as §1, §2, §3

[6] = tested on: E. aerogenes ATCC 13048; experiment: Broth microdilution assay, E. aerogenes; format: cell-based, Enterobacter aerogenes; settings: 50 µM, 24 h, inhibition of growth, mean ± SD
Description: as §1, §2, §3

[7] = tested on: S. aureus ATCC 25923; experiment: Broth microdilution assay, S. aureus; format: cell-based, Staphylococcus aureus; settings: 50 µM, 24 h, inhibition of growth, mean ± SD
Description: as §1, §2, §3

Structure (SMILES)	Inhibitory effect (%) P. aeruginosa ATCC 27853 [1] [%]	Inhibitory effect (%) E. coli ATCC 25922 [2] [%]	Cytotoxicity (%) Huh-7 cells [3] [%]	Inhibitory effect (%) C. albicans ATCC 90028 [4] [%]	Inhibitory effect (%) E. faecalis ATCC 29212 [5]	Inhibitory effect (%) E. aerogenes ATCC 13048 [6]	Inhibitory effect (%) S. aureus ATCC 25923 [7] [%]
CC(C)C12CCC3(COC(=O)c4ccccc4)CCC4(C)C(=C31)C(CC1C3(C)CCC(OC(=O)c5ccccc5)C(C)(C)C3CCC14C)n1c(=O)n(-c3ccccc3)c(=O)n12 (stereo not shown) [Compound 50]	3.2±0.3	-2.8±5.2	-6.2±3.7	-35.2±31.4	38.8±5.8%	9.6±4.2%	10.1±1.0
CC(=O)OCC12CCC3(C(C)C)C1=C1C(CC4C5(C)CCC(OC(C)=O)C(C)(C)C5CCC4(C)C1(C)CC2)n1c(=O)n(-c2cccc(Cl)c2)c(=O)n13 (stereo not shown) [Compound 39]	2.6±1.1	4.4±2.7	1.5±2.7	4.8±13.6	69.1±4.9%	19.0±1.9%	5.7±0.8
CC(=O)OCC12CCC3(C(C)C)C1=C1C(CC4C5(C)CCC(OC(C)=O)C(C)(C)C5CCC4(C)C1(C)CC2)n1c(=O)n(Cc2ccccc2)c(=O)n13 (stereo not shown) [Compound 40]	1.7±0.6	-0.8±2.3	2.3±2.2	4.4±10.5	66.0±1.5%	15.1±3.4%	4.1±1.1
CC(=O)OCC12CCC3(C(C)C)C1=C1C(CC4C5(C)CCC(OC(C)=O)C(C)(C)C5CCC4(C)C1(C)CC2)n1c(=O)n(-c2ccc4c(c2)CCC4)c(=O)n13 (stereo not shown) [Compound 36]	5.8±0.7	2.6±2.1	7.9±2.2	10.7±4.8	62.0±1.9%	14.5±1.3%	6.1±1.7
C=C(C)[C@@H]1CC[C@]2(COC(C)=O)CC[C@]3(C)[C@H](CC[C@@H]4[C@@]5(C)CC[C@H](O)C(C)(C)[C@@H]5CC[C@]43C)[C@@H]12 [Compound 9]	-0.6±3.3	-0.2±7.1	5.1±1.0	3.0±10.1	50.9±2.1%	9.1±2.1%	5.1±6.9
CC(=O)OCC12CCC3(C(C)C)C1=C1C(CC4C5(C)CCC(OC(C)=O)C(C)(C)C5CCC4(C)C1(C)CC2)n1c(=O)n(-c2ccccc2)c(=O)n13 (stereo not shown) [Compound 41]	1.3±0.4	7.1±1.0	1.3±4.4	15.0±14.3	52.4±7.2%	18.6±5.6%	12.7±1.6
C=C(C)C1CCC2(CO)CCC3(C)C(CCC4C5(C)CCC(OC(C)=O)C(C)(C)C5CCC43C)C12 (stereo not shown) [Compound 12]	1.8±1.2	1.0±5.0	3.8±14.1	-18.0±27.4	54.7±7.9%	14.5±1.3%	-16.3±7.4
C=C(C)C1CCC2(C=O)CCC3(C)C(CCC4C5(C)CCC(=O)C(C)(C)C5CCC43C)C12 (stereo not shown) [Compound 22]	4.5±1.6	-1.2±0.5	4.1±17.7	-18.7±15.1	16.3±19.0%	6.0±4.6%	0.1±1.5
CC(=O)OCC12CCC3(C(C)C)C1=C1C(CC4C5(C)CCC(OC(C)=O)C(C)(C)C5CCC4(C)C1(C)CC2)n1c(=O)n(-c2ccc(F)cc2)c(=O)n13 (stereo not shown) [Compound 37]	4.6±0.7	5.0±8.8	0.8±3.4	11.7±9.0	48.2±7.7%	17.7±2.2%	6.5±0.9
C=C(C)[C@@H]1CC[C@]2(C(=O)OC)CC[C@]3(C)[C@H](CC[C@@H]4[C@@]5(C)CC[C@H](O)C(C)(C)[C@@H]5CC[C@]43C)[C@@H]12 [Compound 20, betulinic acid methyl ester]	8.6±2.5	13.5±8.9	33.7±7.0	34.3±5.6	51% and 51.1±0.6%	39% and 38.9±1.5%	5.3±4.2
C=C(C)C1CCC2(COS(C)(=O)=O)CCC3(C)C(CCC4C5(C)CCC(OC(C)=O)C(C)(C)C5CCC43C)C12 (stereo not shown) [Compound 13]	6.5±0.9	-0.4±3.4	0.2±3.8	-14.8±8.5	61.2±1.5%	15.0±1.9%	-16.5±3.0
CC(C)C12CCC3(COC(=O)C4CCCCC4)CCC4(C)C(=C31)C(CC1C3(C)CCC(OC(=O)C5CCCCC5)C(C)(C)C3CCC14C)n1c(=O)n(C)c(=O)n12 (stereo not shown) [Compound 48]	7.1±1.7	-5.5±1.9	-10.8±1.9	-39.6±25.9	56.3±1.8%	12.1±2.2%	5.0±4.2
C=C(C)[C@@H]1CC[C@]2(C=NO)CC[C@]3(C)[C@H](CC[C@@H]4[C@@]5(C)CCC(=NO)C(C)(C)[C@@H]5CC[C@]43C)[C@@H]12 [Compound 30]	1.4±1.1	7.9±6.1	42.4±5.4	13.9±8.8	57% and 56.9±2.6%	18.5±3.4%	5.1±6.0
